This is an account of results in patent US6087119A, “Method for determining the catalytic activity of factor IXa” (Roche Diagnostics GmbH, priority 1996, dated 2000).

The target in assay [1] is T1, rFIXa (human) (Homo sapiens, UniProt P00740). The assay is described as follows: Influence of alcohols and organic solvents on the activity of rFIXa, chromogenic peptide substrates. In kind it is biochemical. The following applies: for V/V0: MeSO2-D-HHT-Gly-Arg-pNA 1.02 mmol/l, 0.48 μmol/l rFIXa; for V/V0 / effect on the activity of rFIXa (in words): pH 7.4; for effect on the activity of rFIXa (in words): additive 0-50%, MeSO2-D-HHT-Gly-Arg-pNA. Details: coding for the FIX protease domain from amino acid position 181 to 415; Met (ATG start codon) (N); made in house. The protocol: The reaction was started by adding FIXa.
MeSO2 -D-HHT-Gly-Arg-pNA→MeSO2 -D-HHT-Gly-Arg+pNA measurement signal: pNA
0.48 μmol/l rFIXa (human)
0-50% (alcohol or organic solvent)
The ratio V/V0 was calculated to illustrate the stimulation of the catalytic activity of rFIXa.
V0, reaction rate without additives
V, reaction rate in the presence of additives
Test Mixture Chromogenic (Concentration in the Test)
Target sequence in this assay (P00740 227-461 limits assumed): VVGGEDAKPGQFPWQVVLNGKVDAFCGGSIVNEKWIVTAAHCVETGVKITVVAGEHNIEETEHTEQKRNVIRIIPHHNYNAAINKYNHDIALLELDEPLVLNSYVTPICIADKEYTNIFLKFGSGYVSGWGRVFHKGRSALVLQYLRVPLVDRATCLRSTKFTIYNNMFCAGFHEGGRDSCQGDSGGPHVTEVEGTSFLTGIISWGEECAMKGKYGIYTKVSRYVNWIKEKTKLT
Target sequence in this assay (P00740 131-226 partner limits assumed): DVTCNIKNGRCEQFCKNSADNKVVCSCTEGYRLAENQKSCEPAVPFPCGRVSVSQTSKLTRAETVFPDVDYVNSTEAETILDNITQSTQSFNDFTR

Assay [2] deals with T1, rFIXa (human). The assay is described as follows: Influence of known protease inhibitors on the activity of rFIXa. The assay is classed as biochemical. Details: coding for the FIX protease domain from amino acid position 181 to 415; Met (ATG start codon) (N); made in house. The protocol: Specific FIXa inhibitors can be identified by the inhibition of FIXa activity. For this purpose the FIXa activity is determined with a substrate of the R-D-Xxx-Gly-Arg-pNA type (Xxx=hydrophobic amino acid) in the absence and presence of the substance to be tested or of a substance mixture and the percentage inhibition is calculated from the quotients. The inhibition constant Ki is determined from the inhibition kinetics. The measurement signal is amplified by the presence of high concentrations of certain alcohols (preferably ethylene glycol).
200 μl buffer (100 mmol/l Tris-HCl, 100 mmol/l NaCl, 5 mmol/l CaCl2, 20-40% alcohol, pH 7-9) the buffer contains the inhibitor at various concentrations […]
The reaction can also be terminated after 5-10 min by stopping with acetic acid (25 μl, 50%), the absorbance is determined at 405 nm against a reagent blank.
Influence of Known Protease Inhibitors on the Activity of rFIXa Using Different pHs, Alcohols and Alcohol Concentrations 42 mmol/l Tris-HCl, pH 7.4 or 8.5 substrate MeSO2 -D-CHG-Gly-Arg-pNA (1.02 mmol/l) […]
inhibitor at stepped concentrations (4.1-163 μmol/l)
Known synthetic inhibitors of the 3-amidinophenylalanine type were used as inhibitors (Sturzebecher et al, J. Enzyme. Inhibition 9 (1995) 87 and WO 92/08709) (1991)). The inhibitory effect was examined at a low and at a high alcohol concentration as an example.
Target sequence in this assay (P00740 227-461 limits assumed): as the sequence (P00740 227-461 limits assumed) above
Target sequence in this assay (P00740 131-226 limits assumed): as the sequence (P00740 131-226 partner limits assumed) above

Turning to `CC#N` [Acetonitrile], the V/V0 on rFIXa (human) [1] (8% additive) turned out to be 0.828; on rFIXa (human) [1] (16% additive), 0.314; at rFIXa (human) [1] (25% additive) it was 0; at rFIXa (human) [1] (33% additive), 0; at rFIXa (human) [1] (41% additive), 0; at rFIXa (human) [1] (50% additive) it was 0. Besides, at rFIXa (human) [1], the “effect on the activity of rFIXa (in words)” value (shortened to “effect on the activity”) is “inactivate the enzyme”.
As for `CN(C)C=O` [DMF, dimethylformamide], the V/V0 on rFIXa (human) [1] (8% additive) was determined as 0.649; on rFIXa (human) [1] (16% additive), 0.514; at rFIXa (human) [1] (25% additive) it was 0; on rFIXa (human) [1] (33% additive) it was 0; at rFIXa (human) [1] (41% additive), 0; on rFIXa (human) [1] (50% additive), 0. The “effect on the activity” value at rFIXa (human) [1] is given as “inactivate the enzyme”.
For the compound `C[S+](C)[O-]` [DMSO, dimethylsulfoxide], the V/V0 at rFIXa (human) [1] (8% additive) is 1.27; at rFIXa (human) [1] (16% additive), 1.45; at rFIXa (human) [1] (25% additive), 1.59; on rFIXa (human) [1] (33% additive), 1.43; on rFIXa (human) [1] (41% additive), 0.922; on rFIXa (human) [1] (50% additive), 0.157. In addition, the “effect on the activity” value on rFIXa (human) [1] is given as “does not inhibit rFIXa up to 30%”.
For `OCC(O)CO` [Glycerol], the V/V0 on rFIXa (human) [1] (8% additive) is given as 1.12; at rFIXa (human) [1] (16% additive) it was 1.64; at rFIXa (human) [1] (25% additive) it was 2.47; on rFIXa (human) [1] (33% additive), 3.38; on rFIXa (human) [1] (41% additive) it was 4.82; on rFIXa (human) [1] (50% additive) it was 5.91. Moreover, the “effect on the activity” value at rFIXa (human) [1] is recorded as “does not stimulate until higher concentrations (25-50%)”.
As to `CO` [Methanol], the V/V0 at rFIXa (human) [1] (8% additive) is 2.16; on rFIXa (human) [1] (16% additive) it was 3.46; on rFIXa (human) [1] (25% additive) it was 3.71; at rFIXa (human) [1] (33% additive), 2.83; at rFIXa (human) [1] (41% additive), 1.55; at rFIXa (human) [1] (50% additive), 0.588. Moreover, at rFIXa (human) [1] (concentration range of 15-40%), the “stimulation of the activity of rFIXa” value is recorded as 5-15 fold.
Consider `CC(C)O` [i-Propanol], for which the V/V0 at rFIXa (human) [1] (8% additive) was 2.17; at rFIXa (human) [1] (16% additive) it was 2.48; on rFIXa (human) [1] (25% additive), 1.18; on rFIXa (human) [1] (33% additive), 0.346; at rFIXa (human) [1] (41% additive), 0.164; at rFIXa (human) [1] (50% additive), 0.164.
Turning to `OC[C@@H](O)[C@@H](O)CO` [m-Erythritol], the V/V0 on rFIXa (human) [1] (8 g/100 ml additive) stood at 1.16; on rFIXa (human) [1] (16 g/100 ml additive) it was 1.35; on rFIXa (human) [1] (25 g/100 ml additive) it was 1.49; on rFIXa (human) [1] (33 g/100 ml additive), 1.56; at rFIXa (human) [1] (41 g/100 ml additive), 1.64; at rFIXa (human) [1] (50 g/100 ml additive), 1.77. On rFIXa (human) [1], the “effect on the activity” value is recorded as “only has a slight effect”.
For `CCCO` [n-Propanol], the V/V0 was 3.43 on rFIXa (human) [1] (8% additive); 2.26 on rFIXa (human) [1] (16% additive); 0.339 on rFIXa (human) [1] (25% additive); 0.186 on rFIXa (human) [1] (33% additive); 0.056 on rFIXa (human) [1] (41% additive); 0.056 on rFIXa (human) [1] (50% additive).
In the case of `CC(C)(C)O` [t-Butanol], the V/V0 on rFIXa (human) [1] (8% additive) was 2.05; on rFIXa (human) [1] (16% additive), 1.67; at rFIXa (human) [1] (25% additive) it was 0.702; at rFIXa (human) [1] (33% additive), 0.368; at rFIXa (human) [1] (41% additive), 0.263; on rFIXa (human) [1] (50% additive) it was 0.263.
For `N=C(N)c1cccc(CC(NS(=O)(=O)c2ccc3ccccc3c2)C(=O)N2Cc3ccccc3CC2C(=O)O)c1` (stereo not drawn) [βNAPS-(3-Am)Phe-TIC-OH, Nα-(2-naphthylsulfonyl)-3-amidino-(D,L)-phenylalanine-1,2,3,4-tetrahydroisoquinoline-3-carboxylic acid], the “Inhibition of the activity of factor IXa (in %)” value (from here on “Inhibition … (in %)”) on rFIXa (human) [2] (inhibitor 4.1 μmol/l, pH 7.4, 4.1% ethanol, 0.57 μmol/l rFIXa) was 97.2%; on rFIXa (human) [2] (inhibitor 4.1 μmol/l, pH 7.4, 33% ethylene glycol, 0.057 μmol/l rFIXa), 100%; at rFIXa (human) [2] (inhibitor 4.1 μmol/l, pH 8.5, 4.1% ethanol, […] rFIXa), 100%; on rFIXa (human) [2] (inhibitor 4.1 μmol/l, pH 8.5, 33% ethylene glycol, […] rFIXa), 100%; at rFIXa (human) [2] (inhibitor 8.2 μmol/l, pH 7.4, 4.1% ethanol, 0.57 μmol/l rFIXa), 97.2%; on rFIXa (human) [2] (inhibitor 8.2 μmol/l, pH 7.4, 33% ethylene glycol, 0.057 μmol/l rFIXa), 100%. Also, the “Inhibition … (in %)” value was determined as 96.2% on rFIXa (human) [2] (inhibitor 8.2 μmol/l, pH 8.5, 4.1% ethanol, […] rFIXa); 97.9% at rFIXa (human) [2] (inhibitor 8.2 μmol/l, pH 8.5, 33% ethylene glycol, […] rFIXa); 88.2% on rFIXa (human) [2] (inhibitor 16.3 μmol/l, pH 7.4, 4.1% ethanol, 0.57 μmol/l rFIXa); 85.4% on rFIXa (human) [2] (inhibitor 16.3 μmol/l, pH 7.4, 33% ethylene glycol, 0.057 μmol/l rFIXa); 86.2% on rFIXa (human) [2] (inhibitor 16.3 μmol/l, pH 8.5, 4.1% ethanol, […] rFIXa); 88.4% at rFIXa (human) [2] (inhibitor 16.3 μmol/l, pH 8.5, 33% ethylene glycol, […] rFIXa). For the same compound, the “Inhibition … (in %)” value amounted to 75.4% on rFIXa (human) [2] (inhibitor 40.8 μmol/l, pH 7.4, 4.1% ethanol, 0.57 μmol/l rFIXa); 62.6% at rFIXa (human) [2] (inhibitor 40.8 μmol/l, pH 7.4, 33% ethylene glycol, 0.057 μmol/l rFIXa); 77.5% at rFIXa (human) [2] (inhibitor 40.8 μmol/l, pH 8.5, 4.1% ethanol, […] rFIXa); 78.4% at rFIXa (human) [2] (inhibitor 40.8 μmol/l, pH 8.5, 33% ethylene glycol, […] rFIXa); 57.0% on rFIXa (human) [2] (inhibitor 81.6 μmol/l, pH 7.4, 4.1% ethanol, 0.57 μmol/l rFIXa); 41.0% at rFIXa (human) [2] (inhibitor 81.6 μmol/l, pH 7.4, 33% ethylene glycol, 0.057 μmol/l rFIXa). The “Inhibition … (in %)” value on rFIXa (human) [2] (inhibitor 81.6 μmol/l, pH 8.5, 4.1% ethanol, […] rFIXa) amounted to 63.8%; at rFIXa (human) [2] (inhibitor 81.6 μmol/l, pH 8.5, 33% ethylene glycol, […] rFIXa), 66.0%; on rFIXa (human) [2] (inhibitor 163 μmol/l, pH 7.4, 4.1% ethanol, 0.57 μmol/l rFIXa), 25.7%; at rFIXa (human) [2] (inhibitor 163 μmol/l, pH 7.4, 33% ethylene glycol, 0.057 μmol/l rFIXa) it was 28.9%; at rFIXa (human) [2] (inhibitor 163 μmol/l, pH 8.5, 4.1% ethanol, […] rFIXa), 48.8%; on rFIXa (human) [2] (inhibitor 163 μmol/l, pH 8.5, 33% ethylene glycol, […] rFIXa) it was 45.4%.
